One data set has as its system islets. In words: [U-14C]-glutamine oxidation in islets. It counts as cell-based, rat. As for the experimental part:
In a first experiment, a batch of 100 islets were incubated with glucose-free Krebs-Ringer bicarbonate buffer, as described herein, containing 20 μM EGCG or 20 μM EGC and 2 mM glutamine for 60 minutes. The islets were then incubated in the presence of varying concentrations of BCH (shown in FIG. 7A) for 60 minutes, and for an additional 60 minutes in the presence of 2 mCi [U-^14C]-glutamine (NEN-Life Science Products, UK). Next, [U-^14C]-glutamine oxidation in the incubated islets was measured. A trap filter was placed in each tightly sealed glass tube of the perifusion apparatus to collect the ^14CO2 produced by the islets, and the amount of radioactivity was determined by liquid scintillation counting. The results are summarized in FIG. 7A, and are presented as means±S.E. from 4 separate experiments. […] The islets were then incubated in the presence of 10 mM BCH (or no BCH—to measure “baseline” glutamine oxidation levels) for 60 minutes. The islets were then incubated for an additional 60 minutes in the presence of 2 mCi [U-^14C]-glutamine (NEN-Life Science Products, UK). Next, [U-^14C]-glutamine oxidation in the incubated islets was measured, as described above.

For another data set, the target named is T1, Bovine GDH (bGDH) (Bos taurus, UniProt P00366).
T1 construct: purchased Sigma Aldrich Chemical Company (St. Louis, Mo.)
The data set can be described thus: reductive amination reaction catalyzed by bovine GDH (NADH absorbance at 340 nm). In kind it is biochemical. Particulars: FIG. 1A. As for the experimental part: In this Example, the effects of epigallocatechin gallate (EGCG), epigallocatechin (EGC), epicatechin gallate (ECG), and epicatechin (EC) from Camellia sinensis on GDH activity were tested. Bovine GDH (bGDH) was used in this Example, which was obtained as an aqueous (NH4)2SO4 suspension from Sigma Aldrich Chemical Company (St. Louis, Mo.).
First, aliquots of GDH were extensively dialyzed against 0.1M sodium phosphate buffer, pH 7.0, which contained 1 mM ethylenediaminetetraacetic acid (EDTA). The enzyme concentrations were adjusted to 1 mg/ml and the amount of enzyme added to the reaction mixture, for kinetic analysis, was adjusted to yield optimal steady state velocity measurements. All solutions were made immediately prior to use. Enzyme assays were performed by monitoring reduced coenzyme absorbance at 340 nm using a Shimadzu UV-1601 spectrophotometer. The reductive amination reactions were performed in 3 mL volumes at pH 7.0 in the presence of 0.1 mM nicotinamide adenine dinucleotide (NADH), 50 mM NH4Cl, and 5 mM 2-oxoglutarate. The rate of NADH oxidation was calculated using an extinction coefficient of 6.22 mM^−1 cm^−1.

The conditions of data set [1]: ethanol, DMSO, dimethyl formamide; cited from earlier work.
The test system of data set [2] is rat islets. The data set can be described thus: BCH-stimulated insulin secretion and oxygen consumption in perifused islets. Particulars: 20 μM. It counts as cell-based, Wistar rat. The protocol:
In this Example, the effects of EGCG and EGC on LSIS were measured, while simultaneously monitoring respiration rates. More particularly, the effects of EGCG (20 μM) and EGC (20 μM) on BCH-stimulated insulin secretion were measured. First, 1000 adult male Wistar rat islets were isolated as described above and were cultured on a glass perfusion chamber in 10 mM glucose for 3 days. Next, the islets were perifused in an oxygen consumption measurement apparatus containing BCH, along with 0 μM EGCG and 0 μM EGC, 20 μM EGCG, or 20 μM EGC. The perifusion apparatus used in these Examples consisted of a peristaltic pump, a water bath (37° C.), a gas exchanger (artificial lung: media flowed through the thin-walled silastic tubing loosely coiled in a glass jar that contained 20% O2 and 5% CO2 balanced with N2), and fraction collector. All transfer lines were insulated. After the system was provided with 20 μM EGCG or 20 μM EGC, oxygen partial pressure was recorded every 10 seconds by phosphorescence lifetimes of an oxygen-sensitive porphyrin (palladium-mesotetra; 4-carboxyphenyl porphyrin dendrimer). The dye molecules were excited with pulses at 524 nm from a UV lead and emission was measured at 690 nm. The inflow oxygen tension was measured in the absence of islets in the chamber before and after each experiment. The perifusate was a Krebs buffer (pH 7.4) containing 2.2 mM Ca^2+, 1% bovine serum albumin equilibrated with 20% O2 and 5% CO2 balanced with N2. The flow rate was […] and samples were collected every 2 minutes for insulin measurements by radioimmunoassay. The results are summarized in FIG. 6, and are presented as means±S.E. for 1000 islets from 3 separate experiments for EGCG (and from 1 experiment for EGC). Due to the high density of data, S.E. is only shown in every 20 samples.

The test system of data set [3] is rat islets. The data set can be described thus: glucose stimulated insulin secretion (GSIS), short run-down (50 minutes), glucose ramp. In kind it is cell-based. The settings on record: 20 μM, FIGS. 8A and 8B. As for the experimental part: In this Example, the effect of EGCG on glucose stimulated insulin secretion (GSIS) was examined. Isolated rat islets were cultured with 20 mM glucose (FIG. 8A) and 10 mM glucose (FIG. 8B) for 3 days, then perifused in the absence of glucose for 50 minutes and in the presence of 0 μM EGCG; 20 μM EGCG; or 20 μM EGC. Next, the islets were stimulated by a glucose ramp (0 to 25 mM, 0.5 mM/minute). Finally, the islets were exposed to 30 mM KCl. Insulin levels were measured every minute by radioimmunoassay. The results shown in FIG. 8A are presented as means±S.E. for 100 islets from 3 separate experiments (and means±S.E. for 100 islets from 1 experiment for FIG. 8B).

Data set [4] has as its system rat islets. In words: glucose stimulated insulin secretion in 120 minute run-down islets. In kind it is cell-based. The protocol:
Under brief “run-down” conditions used for the above GSIS analysis, where glucose was removed from the cells for only […], the levels of high-energy metabolites (i.e., GTP and ATP) have not been depleted and these effectively shut down GDH activity. This, in turn, eliminated any effect GDH might have on insulin secretion. Therefore, the effects of EGCG were also tested on […] that had been “run-down” for a longer period of time (120 minutes) prior to glucose stimulation (FIG. 11). Specifically, isolated rat islets were cultured with 10 mM glucose for 3 days and then perifused in the absence of glucose and in the presence of 0 or 20 μM EGCG (or 20 μM EGC) for “run-down” periods of 120 minutes prior to stimulation with a glucose ramp (0 to 25 mM, 0.5 mM/minute). Finally, islets were exposed to 30 mM KCl. The insert highlighted the insulin secretion from time=120 minutes to 140 minutes.

T1 sequence (P00366 58-558): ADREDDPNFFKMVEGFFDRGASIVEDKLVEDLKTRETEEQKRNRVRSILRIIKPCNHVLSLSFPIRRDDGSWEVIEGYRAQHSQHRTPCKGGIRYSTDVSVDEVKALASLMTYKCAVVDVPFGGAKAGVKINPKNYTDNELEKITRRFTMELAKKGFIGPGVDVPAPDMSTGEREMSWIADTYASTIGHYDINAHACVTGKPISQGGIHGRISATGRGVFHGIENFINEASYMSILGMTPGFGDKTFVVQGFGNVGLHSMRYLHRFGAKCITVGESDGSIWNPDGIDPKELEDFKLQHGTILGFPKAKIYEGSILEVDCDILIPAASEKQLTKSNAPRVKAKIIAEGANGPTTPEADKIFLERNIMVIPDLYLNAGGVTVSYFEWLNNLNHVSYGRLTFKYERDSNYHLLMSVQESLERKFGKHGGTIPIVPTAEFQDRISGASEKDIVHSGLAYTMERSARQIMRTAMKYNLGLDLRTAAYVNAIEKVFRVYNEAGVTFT

For the compound `NC1(C(=O)O)CC2CCC1C2` (stereo not drawn) [BCH, beta-2-aminobicyclo[2.2.1]heptane-2-carboxylic acid, reference compound], in the data set on islets (100 islets, 2 mM glutamine, FIG. 7A), the “stimulation of glutamine oxidation” value was “dose-dependently stimulated”.

Regarding `[N-]=[N+]=CC(=O)CC[C@H](N)C(=O)O` [DON, 6-diazo-5-oxo-L-norleucine, reference compound], the “effect on 10 mM BCH-stimulated glutamine oxidation” value in the data set on islets (3 mM glutamine, FIG. 7B, 7C) was “blocks glutaminolysis to levels lower than the unstimulated β-cells at high concentrations”.

As for `O=C(O[C@@H]1Cc2c(O)cc(O)cc2O[C@@H]1c1ccc(O)c(O)c1)c1cc(O)c(O)c(O)c1` [ECG, (2R,3R)-2-(3,4-Dihydroxyphenyl)-3,4-dihydro-1 (2H)-benzopyran-3,5,7-triol 3-(3,4,5-trihydroxybenzoate)], at Bovine GDH (bGDH), the “potent inhibitor of GDH activity” value was “potent inhibitors”. Also, the “soluble in organic solvents” value in data set [1] is “soluble”.

As to `Oc1cc(O)c2c(c1)O[C@H](c1cc(O)c(O)c(O)c1)[C@H](O)C2` [EGC, epigallocatechin, reference compound], on Bovine GDH (bGDH), the “potent inhibitor of GDH activity” value is “not”. In the data set with rat islets [2], the “sensitization of the β-cells to BCH” value was “slight sensitization”. Besides, the “effect on LSIS (BCH-induced insulin secretion)” value in the data set with rat islets [2] (FIG. 6A) is given as “did not cause significant inhibition”. For the same compound, in the data set with rat islets [2] (FIG. 6B), the “effect on BCH-induced increase in respiration rates” value is reported as “nor did it have as strong of an effect on respiration as compared to EGCG”. In the data set with islets (20 μM, 2 mM glutamine, FIG. 7A), the “block of BCH stimulation of glutaminolysis (glutamine oxidation)” value is on record as “not”. Besides, in the data set with rat islets [3], the “effect on GSIS” value is “neither EGC nor EGCG affected”. The “potentiation of GSIS” value with rat islets [4] (20 μM, 120 minute run-down, FIG. 11) is listed as “not”. The “effect on KCl-stimulated release of insulin” value with rat islets [4] (30 mM KCl) is given as “neither EGCG or EGC affected”. Also, the “sensitization of the cells at low glucose concentrations” value in the data set on rat islets [4] (FIG. 11, inset) is recorded as “slightly sensitize”.

Values taken from patent US20060263453A1, “Methods and compositions for modulating glutamate dehydrogenase” (priority 2004, published 2006).
